Where “and” joins values, the source holds several entries; their conditions need not be identical. Equal values may be shown once. Read-outs that look alike come from different tables or passages of the source. Marks after values point to notes of the source that are not given here.
Columns and labels:
[1] = tested on: T. cruzi bloodstream trypomastigotes; assay: In vivo infectivity in Swiss mice of blood samples infected with bloodstream trypomastigotes pre-treated with AIAs or CV; parameters: species or system Trypanosoma cruzi; conditions: for suppression of the parasite load (parasitemia): both genders; for Clearance of the Parasitemia / Clearance of the Parasitemia after cyclophosphamide administration: cleared mice/total
Method: Male and female Swiss Webster mice (18–20 g) were obtained from the Fundação Oswaldo Cruz animal facilities (ICTB, Rio de Janeiro, Brazil). Mice were housed at a maximum of five per cage, kept in a specific pathogen-free (SPF) room at 20 to 24 °C under a 12-h/12 h light/dark cycle and provided sterilized water and chow ad libitum. The animals were allowed to acclimate for 7 days before the start of the experiments.
For evaluation of the chemoprophylactic potential of the AIAs and CV in vivo, the mice were inoculated (via i.p.) with 10^4 trypomastigotes into 200 µL of: (a) infected untreated blood samples; (b) infected using blood samples pre-treated for 2 h with the compounds at a concentration corresponding either to their EC50 or with 96 µM of one of the AIAs.
Parasitemia of individual mice was daily checked (until 10 dpi, and then, twice a week) by direct microscopic counting of parasites in 5 µL of blood taken via tail prick. Body weight was evaluated weekly, and mortality was checked daily until 40 days post-treatment and expressed as the percentage of survival. Thirty days after treatment the animals were immunosuppressed with cyclophosphamide (50 mg/kg) in three cycles of 4 consecutive days/week and the parasitemia and mortality rates were evaluated for 4 weeks.

[2] = tested on: mouse blood cells; assay type: cell-based; conditions: Swiss Webster, 24 h
Method: In 96-well microplates, 100 µL of the mouse blood suspension was added to the same volume of DB745 or DB766 at concentrations ranging from 2.4 to 192 µM. After incubation at 4 °C for 24 h, the samples were centrifuged (5 min/540× g) and a 100 µL aliquot was transferred to another microplate and the levels of hemoglobin measured at 540 nm. Deionized water was used as control for 100% hemolytic activity, and PBS as a negative control. The degree of hemolysis was calculated by the variation index (VI) that corresponds to the ratio of optical density (OD) of the treated sample/positive control. The reading of the OD of the samples was performed in the SpectraMax® Plus 384 Absorbance Plate Reader spectrophotometer (540 nm) and duplicate samples were run in at least two assays.

[3] = tested on: bloodstream trypomastigotes (BT) of Trypanosoma cruzi; assay: In vitro infectivity of bloodstream trypomastigotes pre-treated with AIAs in cardiac cell cultures; assay type: cell-based; conditions: for Par./Infected CC / II (infection index = % infection × parasites/infected CM) / % Infection: BT pre-treated 2 h at EC50 (DB745 6.4 μM, DB766 1.14 μM)
Method: Bloodstream trypomastigote (BT) forms of the Y strain were obtained from infected male Swiss mice, at peak parasitemia. The purified parasites were resuspended in Dulbecco’s modified Eagle’s medium (DME) supplemented with 10% FBS (DMES). […] Then, the parasite suspensions were centrifuged (3000 rpm/10 min) and the pellet resuspended in RPMI, quantified through light microscopy, and used for the infection of Swiss embryo mouse cardiac cell cultures (CC) seeded (15 × 10^4 cells/well) in 24-well plates (10:1 parasite–cell ratio). After 24 h of parasite–host cell interaction, the infected cultures were washed to remove free parasites and maintained at 37 °C in an atmosphere of 5% CO2 and air and the culture medium replaced every 24 h. Afterwards, untreated and treated infected cardiac cells (CCs) were fixed and stained with Giemsa and examined via light microscopy. Only characteristic T. cruzi nuclei and kinetoplasts were counted as surviving parasites since irregular structures could mean parasites undergoing death. The activity of the AIAs was estimated by calculating the infection index (II), which corresponds to the percentage of infected cells multiplied by the average number of intracellular parasites per infected host cell. Duplicate assays were run in the same plate and at least two independent assays were performed as standard.

[4] = tested on: bloodstream trypomastigotes of Trypanosoma cruzi; conditions: cited from earlier work; for fold more effective than crystal violet (trypanocidal activity): 4 °C in the presence of 96% mouse blood
[5] = experiment # 1, inoculum pre-treated 2 h at 96 μM, male Swiss mice, n = 5, vehicle 261.1 ± 124.6
[6] = experiment # 1, pre-treatment at 96 μM
[7] = experiment # 2, inoculum pre-treated 2 h at 96 μM, male Swiss mice, n = 5, vehicle 277.9 ± 57.2
[8] = experiment # 2, pre-treatment at 96 μM
[9] = female Swiss mice, n = 10, inoculum pre-treated at 96 µM, vehicle 247.7 ± 25.3
[10] = female mice, 96 µM, untreated 0%
[11] = male Swiss mice, n = 10, inoculum pre-treated at 96 µM, vehicle 209.8 ± 29.2
[12] = 24 h of parasite-host cell interaction, untreated 23.4 ± 5.5
[13] = experiment # 1, inoculum pre-treated 2 h at EC50, male Swiss mice, n = 5, vehicle 261.1 ± 124.6
[14] = experiment # 1, pre-treatment at EC50
[15] = experiment # 2, inoculum pre-treated 2 h at EC50, male Swiss mice, n = 5, vehicle 277.9 ± 57.2
[16] = experiment # 2, pre-treatment at EC50
[17] = 2 h incubation, infected mouse blood, read-out: EC50

OD ([2]; 3.9 μM)	VI (variation index = OD(treated)/OD(control)) ([2]; 3.9 μM)	OD ([2]; 10.6 μM)	VI (variation index = OD(treated)/OD(control)) ([2]; 10.6 μM)	Clearance of the Parasitemia [1, 14]	Clearance of the Parasitemia [1, 16]	Compound	suppression of the parasite load (parasitemia) ([1]; 96 µM) [%]	Parasitemia at 8 dpi [1, 5]	Clearance of the Parasitemia [1, 6]	Parasitemia at 8 dpi [1, 7]	Clearance of the Parasitemia [1, 8]	Parasitemia at 8 dpi [1, 9]	Clearance of the Parasitemia after cyclophosphamide administration ([1]; female Swiss mice, 96 µM)	animal survival [1, 10] [%]	Parasitemia at 8 dpi [1, 11]	Clearance of the Parasitemia after cyclophosphamide administration ([1]; male Swiss mice, 96 µM)	animal survival ([1]; male mice, 96 µM, untreated 0%) [%]	Parasitemia at 8 dpi [1, 13]	Parasitemia at 8 dpi [1, 15]	fold more effective than crystal violet (trypanocidal activity) [4]	further results
						CN(C)c1ccc(C(=C2C=CC(=[N+](C)C)C=C2)c2ccc(N(C)C)cc2)cc1 [CV, crystal violet, reference compound]	> 99	34.7 ± 38.5 ×10^4 Parasites/mL	0/5	1.6 ± 1.7 ×10^4 Parasites/mL	0/5	0 ± 0 10^4 parasites/mL	3/10	90	0.1 ± 0.2 10^4 parasites/mL	4/10	60				
0.215 ± 0.037	0.082	0.184 ± 0.014	0.070	0/5	0/5	CCOc1cc(NC(=N)c2ccccn2)ccc1-c1ccc(-c2ccc(NC(=N)c3ccccn3)cc2OCC)o1 [DB745]		4.6 ± 2.4 ×10^4 Parasites/mL	0/5	1.3 ± 1.1 ×10^4 Parasites/mL	0/5							156.4 ± 31.1 ×10^4 Parasites/mL	4.2 ± 2.1 ×10^4 Parasites/mL	at least 30 fold	OD ([2]; 1.2 μM): 0.220 ± 0.063; VI (variation index = OD(treated)/OD(control)) ([2]; 1.2 μM): 0.084; OD ([2]; 32 μM): 0.195 ± 0.007; VI (variation index = OD(treated)/OD(control)) ([2]; 32 μM): 0.074; OD ([2]; 96 μM): 0.206 ± 0.004; VI (variation index = OD(treated)/OD(control)) ([2]; 96 μM): 0.078; Par./Infected CC ([3]; 24 h, untreated 1.6 ± 0.5): 1.4 ± 0.3; II (infection index = % infection × parasites/infected CM) ([3]; 24 h, untreated 38 ± 16): 10 ± 4.4; % Infection [3, 12]: 7.3 ± 3.4 %; Par./Infected CC ([3]; 72 h, untreated 17.7 ± 1.7): 18.6 ± 2.4; % Infection ([3]; 72 h, untreated 26.3 ± 2.3): 14.6 ± 0.2%; II (infection index = % infection × parasites/infected CM) ([3]; 72 h, untreated 466 ± 49): 272 ± 39; effect on parasite multiplication (parasites per infected host cell) ([3]; BT pre-incubated at EC50): only slightly impaired the parasite multiplication; reduction of parasitemia peak ([1]; inoculum pre-treated at EC50, male Swiss mice): > 98%; EC50 [4, 17]: 6400 nM
0.248 ± 0.018	0.094	0.200 ± 0.034	0.076	0/5	0/5	CC(C)Oc1cc(NC(=N)c2ccccn2)ccc1-c1ccc(-c2ccc(NC(=N)c3ccccn3)cc2OC(C)C)o1 [DB766]		7.9 ± 5.2 ×10^4 Parasites/mL	0/5	0.7 ± 1.1 ×10^4 Parasites/mL	0/5							141.3 ± 152.7 ×10^4 Parasites/mL	170.5 ± 39 ×10^4 Parasites/mL	at least 30 fold	OD ([2]; 32 μM): 0.230 ± 0.051; VI (variation index = OD(treated)/OD(control)) ([2]; 32 μM): 0.088; OD ([2]; 96 μM): 0.317 ± 0.069; VI (variation index = OD(treated)/OD(control)) ([2]; 96 μM): 0.121 *; Par./Infected CC ([3]; 24 h, untreated 1.6 ± 0.5): 0.5 ± 0.7; II (infection index = % infection × parasites/infected CM) ([3]; 24 h, untreated 38 ± 16): 0.5 ± 2.1; decrease in number of parasites per infected host cell ([3]; 24 h of CC infection, BT pre-incubated at EC50): 69%; % Infection [3, 12]: 1% and 1.0 ± 1.5 %; Par./Infected CC ([3]; 72 h, untreated 17.7 ± 1.7): 0.3 ± 0.4; % Infection ([3]; 72 h, untreated 26.3 ± 2.3): 0.1% and 0.1 ± 0.2%; II (infection index = % infection × parasites/infected CM) ([3]; 72 h, untreated 466 ± 49): 0.03 ± 0.2; decrease in number of parasites per infected host cell ([3]; 72 h of CC infection, BT pre-incubated at EC50): 98%; reduction in the II ([3]; BT pre-incubated at EC50): > 99%; EC50 [4, 17]: 1140 nM

Compound	OD ([2]; 3.9 μM)	VI (variation index = OD(treated)/OD(control)) ([2]; 3.9 μM)	OD ([2]; 10.6 μM)	VI (variation index = OD(treated)/OD(control)) ([2]; 10.6 μM)	Clearance of the Parasitemia [1, 14]	Clearance of the Parasitemia [1, 16]	suppression of the parasite load (parasitemia) ([1]; 96 µM) [%]	Parasitemia at 8 dpi [1, 5]	Clearance of the Parasitemia [1, 6]	Parasitemia at 8 dpi [1, 7]	Clearance of the Parasitemia [1, 8]	Parasitemia at 8 dpi [1, 9]	Clearance of the Parasitemia after cyclophosphamide administration ([1]; female Swiss mice, 96 µM)	animal survival [1, 10] [%]	Parasitemia at 8 dpi [1, 11]	Clearance of the Parasitemia after cyclophosphamide administration ([1]; male Swiss mice, 96 µM)	animal survival ([1]; male mice, 96 µM, untreated 0%) [%]	Parasitemia at 8 dpi [1, 13]	Parasitemia at 8 dpi [1, 15]	fold more effective than crystal violet (trypanocidal activity) [4]	further results
CC(C)Oc1cc(NC(=N)c2ncccn2)ccc1-c1ccc(-c2ccc(NC(=N)c3ncccn3)cc2OC(C)C)o1 [DB1831]					0/5	0/5	> 99	0.0 ± 0.0 ×10^4 Parasites/mL	2/5	0.0 ± 0.0 ×10^4 Parasites/mL	4/5	0.1 ± 0.5 10^4 parasites/mL	2/10	100	0.0 ± 0.0 10^4 parasites/mL	7 out of 10 and 7/10	90	366.2 ± 295.1 ×10^4 Parasites/mL	157.7 ± 55.9 ×10^4 Parasites/mL	at least 30 fold	infected mice with complete clearance of parasitemia ([1]; 96 µM, even after immune suppression with cyclophosphamide): 60%; animal survival ([1]; 96 µM, vehicle treated samples 0%): ≥ 90%; EC50 ([4]; used as inoculation pre-treatment concentration (Table 3 footnote a), read-out: EC50/2 h): 500 nM

Source: article PMC10224031, “Arylimidamides Have Potential for Chemoprophylaxis against Blood-Transmitted Chagas Disease” (Pathogens, 2023)
